# Measurements: publication PMC8761492 (Life Science Alliance, 2022)
# Values joined by “and” are separate entries in the source; they are usually repeats but may differ in a detail not shown here. Equal values may be shown once. Read-outs that look alike come from different tables or passages of the source. Starred links: 1 amine or outer side, 2 acyl side, 3 side chain; linkers in the order of their positions; H or OH if unused. Positions of bridges follow the written chain, without caps; N, C: chain ends. Non-standard residues stand in square brackets, D forms with d. Residues, ends and D or L forms follow the SMILES beside them. *: point of attachment. X1 = CC[C@H](C)[C@@H](N[*:1])[C@@H](O)CC(=O)O[C@H](C(=O)[C@H](C)C(=O)[*:2])C(C)C; NMeY = CN[C@@H](Cc1ccc(O)cc1)C(=O)O; dNMeL = CN[C@H](CC(C)C)C(=O)O; Pyruvoyl = CC(=O)C(=O)*
# Experiments:
# [1] = tested on: SARS-CoV-2 (βCoV/KOR/KCDC03/2020); test: microbe, parasite or virus in culture; format: cell-based; details: Severe acute respiratory syndrome coronavirus 2, Vero
# [2] = Plasma protein binding by equilibrium dialysis, human plasma; format: in vitro ADME; details: male, human; for recovery at 100 ng/mL / fraction unbound at 5 h, 100 ng/mL: nominal 100 ng/mL; for recovery at 500 ng/mL / fraction unbound at 5 h, 500 ng/mL: nominal 500 ng/mL
# Description: (§1) The binding of plitidepsin to plasma proteins was determined in vitro at three concentrations (100, 250 and 500 ng/ml) in male rat, dog and human plasma ([53]).
# (§2) Rat (CD), beagle dog, and human blood was collected at Aptuit Srl from at least three male donors, and plasma prepared by centrifuging blood at 2,000g, 4°C for 10 min. Human plasma was obtained from healthy and fasted male volunteers. Na-heparin was used as the anti-coagulant for all species. All plasma was stored at approximately −20°C and thawed only once, on the day of the experiment.
# (§3) Plasma protein binding was assessed using Rapid Equilibrium Dialysis plates pre-loaded with equilibrium dialysis membrane inserts (MWCO ∼8 kD).
# (§4) Separation of free compound from protein-bound material was achieved by dialysis of the sample through the membrane under appropriate shaking at 37°C. The suitability of equilibrium dialysis as a method for protein binding determination of plitidepsin was assessed.
# (§5) Before experimentation, the time required to reach equilibrium was determined in male rat and human plasma at one concentration (250 ng/ml) and six selected time points (2, 3, 4, 5, 6, and 7 h) at 37°C.
# (§6) Plitidepsin stability was assessed in plasma (all species) and PBS at two concentrations (100 and 500 ng/ml for plasma; 0.5 and 50 ng/ml for PBS) by comparing plitidepsin concentration in spiked and preincubated plasma before and after incubation at 37°C for 5 h as determined previously.
# plasma proteins = test: as above; format: in vitro ADME; details: for % Bound / % Recovery / % Unbound: single replicates
# Description: as §1, §2, §3, §4, §5, §6
# COVID-19 = test: APLICOV-PC: post hoc analysis of hospital discharge; format: in vivo, human
# Description: Post hoc analyses were conducted to (1) assess disease severity at baseline (mild, moderate, severe COVID-19 by FDA criteria) ([23]) and (2) assess covariates associated with efficacy end points, including hospital discharge by Day 15 or Day 8.
# The Kaplan–Meier method was used for the description of time to event end points and the median and the 95% confidence intervals were provided.
# HCoV-229E = test: Protocol estimate of target concentrations from the HCoV-229E experiment; details: from IC50 0.555 µg/l assuming a Hill slope of 1
# SARS-CoV-2 B.1.1.7 = test: microbe, parasite or virus in culture; format: cell-based; details: 24 h, mean ± SEM
# HCoV-229E-GFP virus = test: microbe, parasite or virus in culture; format: cell-based, human coronavirus 229E; details: Huh-7 cells
# [3] = plasma, single replicates, read-out: % Bound (converted)
# [4] = plasma, single replicates, read-out: % Unbound
compound,measurement,setting,value
CC[C@H](C)[C@H]1NC(=O)[C@@H](NC(=O)[C@@H](CC(C)C)N(C)C(=O)[C@@H]2CCCN2C(=O)C(C)=O)[C@@H](C)OC(=O)[C@H](Cc2ccc(OC)cc2)N(C)C(=O)[C@@H]2CCCN2C(=O)[C@H](CC(C)C)NC(=O)[C@@H](C)C(=O)[C@H](C(C)C)OC(=O)C[C@@H]1O [Plitidepsin] (Pyruvoyl-P[dNMeL]T[X1]LP[NMeY](Me); ester 3-C),IC50,[1]; Boryung Pharmaceuticals,3.26 nM
same,IC90,[1]; estimated from IC50 and Hill slope,9.38 nM
same,fraction unbound,[2]; independent of drug concentration,0.02
same,recovery at 100 ng/mL,"[2]; plasma, Mean ± SD",84.3 ± 6.4%
same,"fraction unbound at 5 h, 100 ng/mL","[2]; plasma, Mean ± SD, read-out: % Unbound",0.017 ± 0.002
same,recovery at 100 ng/mL,"[2]; plasma, single replicates",90.4%
same,"fraction unbound at 5 h, 100 ng/mL",[2]; [3],0.014
same,"fraction unbound at 5 h, 100 ng/mL",[2]; [4],0.014
same,recovery at 250 ng/mL,"[2]; plasma, nominal 250 ng/mL, Mean ± SD",77 ± 17.6%
same,"fraction unbound at 5 h, 250 ng/mL","[2]; plasma, nominal 250 ng/mL, Mean ± SD, read-out: % Bound (converted)",0.022
same,"fraction unbound at 5 h, 250 ng/mL","[2]; plasma, nominal 250 ng/mL, Mean ± SD, read-out: % Unbound",0.022 ± 0.008
same,"fraction unbound at 5 h, 250 ng/mL","[2]; plasma, nominal 250 ng/mL, single replicates, read-out: % Bound (converted)",0.03
same,"fraction unbound at 5 h, 250 ng/mL","[2]; plasma, nominal 250 ng/mL, single replicates, read-out: % Unbound",0.03
same,recovery at 500 ng/mL,"[2]; plasma, mean, n=2",80.4%
same,"fraction unbound at 5 h, 500 ng/mL","[2]; plasma, mean, n=2, read-out: % Bound (converted)",0.019
same,"fraction unbound at 5 h, 500 ng/mL","[2]; plasma, mean, n=2, read-out: % Unbound",0.019
same,recovery at 500 ng/mL,"[2]; plasma, single replicates",82%
same,"fraction unbound at 5 h, 500 ng/mL",[2]; [3],0.019
same,"fraction unbound at 5 h, 500 ng/mL",[2]; [4],0.019
same,fraction unbound at 100 ng/mL,"plasma proteins; male, human, plasma, nominal 100 ng/mL, Mean ± SD, read-out: % Bound (converted)",0.017
same,% Bound,plasma proteins; nominal 100 ng/mL,98.3% and 98.2%
same,% Recovery,plasma proteins; nominal 100 ng/mL,84.7% and 77.7%
same,% Unbound,plasma proteins; nominal 100 ng/mL,1.7% and 1.8%
same,% Bound,plasma proteins; nominal 250 ng/mL,98.5% and 98%
same,% Recovery,plasma proteins; nominal 250 ng/mL,56.7% and 87.3% and 87%
same,% Unbound,plasma proteins; nominal 250 ng/mL,1.5% and 2%
same,% Bound,plasma proteins; nominal 500 ng/mL,98%
same,% Recovery,plasma proteins; nominal 500 ng/mL,78.8%
same,% Unbound,plasma proteins; nominal 500 ng/mL,2%
same,discharge rate at Day 15,COVID-19; 1.5 mg/day,78.6%
same,patients achieving hospital discharge by Day 8,COVID-19; 1.5 mg/day,42.9%
same,discharge rate at Day 15,COVID-19; 2 mg/day,93.3%
same,patients achieving hospital discharge by Day 8,COVID-19; 2 mg/day,60%
same,discharge rate at Day 15,COVID-19; 2.5 mg/day,73.3%
same,patients achieving hospital discharge by Day 8,COVID-19; 2.5 mg/day,66.7%
same,median time to discharge,COVID-19; mild COVID-19 at baseline,7 days
same,discharge rate by Day 8,"COVID-19; mild disease, 4 of 6",66.7%
same,discharge rate by Day 15,"COVID-19; mild disease, 6 of 6",100%
same,median time to discharge,COVID-19; moderate COVID-19 at baseline,7 days
same,patients discharged beyond day 8,"COVID-19; moderate disease at baseline, 1.5 mg/day, three of eight",38%
same,patients discharged beyond day 8,"COVID-19; moderate disease at baseline, 2.0 mg/day, three of seven",43%
same,patients discharged by day 8,"COVID-19; moderate disease at baseline, 2.5 mg/day",8 of 8
same,discharge rate by Day 8,"COVID-19; moderate disease, 17 of 23",73.9%
same,discharge rate by Day 15,"COVID-19; moderate disease, 22 of 23",95.7%
same,discharge rate by day 8,"COVID-19; overall, 25 of 44",56.8%
same,discharge rate by day 15,"COVID-19; overall, 36 of 44",81.8%
same,median time to discharge,COVID-19; severe COVID-19 at baseline,14 days
same,discharge rate by Day 8,"COVID-19; severe disease, 4 of 15",27%
same,discharge rate by Day 15,"COVID-19; severe disease, 8 of 15",53.3%
same,IC90 estimated,HCoV-229E,4.995 µg/L
same,IC50,"SARS-CoV-2 B.1.1.7; Severe acute respiratory syndrome coronavirus 2, Caco-2, pretreated 2 h",6.12 nM
same,IC50,"SARS-CoV-2 B.1.1.7; Severe acute respiratory syndrome coronavirus 2, Calu-3, pretreated 2 h",5.87 nM
same,concentration of plitidepsin with antiviral effect on HCoV-229E-GFP,"HCoV-229E-GFP virus; as low as, equals 0.5 nM",≤ 0.555 µg/L
same,IC50,"HCoV-229E-GFP virus; Human coronavirus 229E, study protocol, read-out: IC50 assumed from the HCoV-229E-GFP experiment",0.5 nM and 0.000555 µg/mL
